Results on two compounds are retold here after patent US20030113321A1, “Novel G-protein-coupled receptor protein and its DNA” (priority 2000, published 2003).

Holding throughout (type): cell-based
The target in assay [1] is T1, TGR4 (Homo sapiens, UniProt Q9H1C0). Description: Reporter gene (CRE-luciferase) expression level in cells with transient TGR4 expression. Details: expressed in transfected cells; host or cells: CHO-mock cells (CHO(dhfr-) transformed with pAKKO-111H), transiently transfected with pAK-TGR4, pAK-Gi and pCRE-Luc. As to conditions: TGR4 gene-transfected CHO-mock cells (co-transfected with pAK-Gi and pCRE-Luc), 4 hours, FIG. 4. An excerpt:
TGR4 cDNA or inhibitory G protein α subunit Gi cDNA was inserted into the animal cell expression vector plasmid pAKKO-111H (the plasmid vector identical to the pAKKO-1.11H described in Biochim. Biophys. Acta, Hinuma, S., et al., 1219, 251-259, 1994) by publicly known methods. The expression vector plasmids pAK-TGR4 and pAK-Gi thus produced and pAKKO-111H without any particular gene inserted were transfected to CHO cells by the following procedures.
First, using these vectors, Escherichia coli JM109 was transformed; after the colony obtained was isolated and incubated, a plasmid was prepared using QIAGEN Plasmid Maxi Kit (Qiagen, Inc.). […]
Geranylgeranyl diphosphate (GGPP, Sigma, Inc.), farnesyl diphosphate (FPP, Sigma, Inc.) and lysophosphatidic acid (LPA, Sigma, Inc.) were diluted in the assay buffer, respectively, and each dilution was added to the transfected CHO-mock cells described above in a concentration of 1, 0.1 and 0.01 μM, followed by incubation at 37° C. for 4 hours under 5% CO2. The culture supernatant was discarded and 50 μl of a substrate for assaying an luciferase activity or PicaGene LT 2.0 (Toyo Ink Mfg. Co., Ltd.) was added, and the luminescence amount of luciferase was assayed by using a plate reader (ARVO sx multi-label counter, Walac, Inc.).

For assay [2], the target named is T1, TGR4. Description: Intracellular calcium ion mobilization activity in TGR4-expressed CHO cells (FLIPR). Details: expressed in transfected cells; host or cells: CHO cells stably expressing TGR4 (CHO-TGR4). As to conditions: 2.5 μM; CHO-TGR4 compared with CHO-mock cells; about 3 minutes after addition; FIGS. 5 and 6. The protocol:
Using the plasmids for TGR4 expression prepared in EXAMPLE 3, CHO-TGR4 as CHO cells for stable TGR4 expression was prepared by a publicly known method. CHO-mock cells with neither CHO-TGR4 nor receptor gene introduced were plated in a 96-well black plate (Costar, Inc.) with the clear bottom in a concentration of 3000 cells/well, and cultured overnight at 37° C. under 5% CO2. The culture solution was used for assay. A wash buffer was prepared by adding 20 mM HEPES, pH 7.4 and 2.5 mM probenecid (Sigma, Inc.) to Hank's balanced salt solution (HBSS, Gibco BRL, Inc.). As a sample buffer, the wash buffer supplemented with 0.1% bovine serum albumin (BSA, Sigma, Inc.) was used. As a dye loading solution there was used a mixture prepared by adding 1% FBS, 4 μM Fluo 3-AM (Wako Pure Chemical Industry Co., Ltd.) and 0.04% Pluronic acid (Molecular Probes, Inc.) to the wash buffer. The medium of the cells was discarded and the dye loading solution was added. After incubation at 37° C. for an hour, the cells were washed with the wash buffer using a plate washer. The cells were set on Fluorometric Imaging Plate Reader (FLIPR, Molecular Devices, Inc.) and a change of the intracellular calcium ion level was measured for about 3 minutes after addition of the sample. As the sample, FPP or LPA was added in a concentration of 2.5 μM.

Assay [3] concerns the target T1, TGR4. Description: Intracellular cAMP production amount in TGR4-expressed CHO cells. Details: expressed in transfected cells; host or cells: CHO cells stably expressing TGR4 (CHO-TGR4). As to conditions: 2 μM; CHO-TGR4 compared with CHO-mock cells; 30 minutes at 37° C.; n is 3; FIGS. 7 and 8. The protocol:
CHO-mock cells with neither CHO-TGR4 nor receptor gene introduced, which were prepared in EXAMPLE 4, were plated in a 96-well plate (Beckton-Dickinson, Inc.) in 25,000 cells/well, followed by incubation overnight at 37° C. under 5% CO2. This culture solution was used for assay. A sample buffer used was HBSS supplemented with 0.1% BSA and 0.2 mM I BMX (Sigma, Inc.). The cells were washed twice with the sample buffer and pre-incubated at 37° C. for 30 minutes. The cells were further washed twice and the sample was added thereto followed by incubation at 37° C. for 30 minutes. The sample was added in 2 μM of farnesyl diphosphate or lysophosphatidic acid. After incubation in the presence of the sample, the amount of intracellular cAMP production was assayed by using cAMP Screen System (ABI).

T1 sequence (Q9H1C0 whole entry): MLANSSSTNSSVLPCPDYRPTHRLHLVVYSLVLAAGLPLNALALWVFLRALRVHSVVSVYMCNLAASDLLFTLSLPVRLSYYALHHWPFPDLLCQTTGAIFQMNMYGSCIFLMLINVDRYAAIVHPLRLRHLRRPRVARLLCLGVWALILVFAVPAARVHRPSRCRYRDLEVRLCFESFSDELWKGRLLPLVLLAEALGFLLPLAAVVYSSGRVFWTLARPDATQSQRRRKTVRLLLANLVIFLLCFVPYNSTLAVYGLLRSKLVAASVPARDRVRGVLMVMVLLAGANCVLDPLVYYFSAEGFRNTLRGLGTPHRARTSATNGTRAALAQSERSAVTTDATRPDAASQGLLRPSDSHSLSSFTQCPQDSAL

`CC(C)=CCC/C(C)=C/CC/C(C)=C/CC/C(C)=C/COP(=O)(O)OP(=O)(O)O` [GGPP, Geranylgeranyl diphosphate]: the luciferase activity result on TGR4 [1] (1 and 0.1 μM) is reported as “increased luciferase activity”.
Consider lysophosphatidic acid [LPA], for which the “intracellular calcium ion mobilization activity” value on TGR4 [2] is given as “increased specifically to CHO-TRG4”. Also, the “amount of intracellular cAMP production” value at TGR4 [3] is given as “increased specifically to CHO-TRG4”. The luciferase activity entry at TGR4 [1] (1 μM) is listed as “increased luciferase activity”.
